In US20240228481A1, “NOVEL SULFONAMIDE SERIES OF QR2 INHIBITORS TO TACKLE OXIDATIVE STRESS AND COGNITIVE DECLINE” (CARMEL HAIFA UNIVERSITY ECONOMIC CORPORATION LTD., priority 2021, published 2024) one finds IC50 data, which are given here for one compound.

For this assay, the target named is T1, QR1 (NQO1) (Homo sapiens, UniProt P15559).
T1 construct: purchased Sigma-Aldrich
Briefly: Selectivity assay with QR1 in place of QR2, absorbance readout. It is filed as biochemical.

T1 sequence (P15559 whole entry): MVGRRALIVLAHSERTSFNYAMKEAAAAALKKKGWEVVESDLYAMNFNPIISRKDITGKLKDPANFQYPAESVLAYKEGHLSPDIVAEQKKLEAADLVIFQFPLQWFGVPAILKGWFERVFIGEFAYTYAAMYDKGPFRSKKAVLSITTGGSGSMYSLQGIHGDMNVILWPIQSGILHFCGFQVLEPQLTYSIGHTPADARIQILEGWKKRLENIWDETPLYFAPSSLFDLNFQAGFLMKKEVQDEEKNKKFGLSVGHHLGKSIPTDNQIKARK

What is called IC50 is the midpoint of a concentration-inhibition curve. Low readings indicate higher potency, high ones lower potency. In the case of `Cc1cccn2cc(-c3cccc(S(=O)(=O)N4CCC(C)CC4)c3)nc12` [YB-800], the IC50 was greater than 9.99 µM.
